Source: the supplement of paper PMC8633005

How the values were obtained:
FM-MEL-2 [1] = conditions: 72 h
Method: (§1)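 Validation dose-response testing of selected drugs on NRAS-mutant melanoma patient-derived cells, run in 2D culture and in 3D spheroids (ultra-low attachment plates), in triplicate per concentration. Viability was read by CellTiter-Glo after 72 h. EC50 came from Breeze curve fitting, and DSS was calculated from the curve.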

FM-MEL-3 [2] = conditions: 72 h
Method: as §1

FM-MEL-6 [3] = conditions: 72 h
Method: as §1

FM-MEL-2 [4] = assay: drug sensitivity score (DSS) (DSS (unitless)); higher = more sensitive; conditions: 72 h
Method: as §1

FM-MEL-3 [5] = assay: as above; conditions: 72 h
Method: as §1

FM-MEL-6 [6] = assay: as above; conditions: 72 h
Method: as §1

Bowes = assay: drug sensitivity score (DSS) (DSS (unitless, 0-50 scale)); higher = more sensitive (stronger viability inhibition); extreme values may be limits of the assay; conditions: 72 h; culture: 2D
Method in brief: (§2)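 Drug sensitivity scores, modified area-under-curve measures, were derived from dose-response curves fitted in the in-house Breeze software. The curves came from melanoma cell lines and patient-derived melanoma cultures (1000–1500 cells per well) grown in 2D in 384-well plates holding a 527-compound oncology library. Each compound was dissolved in DMSO or water and tested at five concentrations across a 10,000-fold range. Viability was read by CellTiter-Glo luminescence after 72 h at 37 °C.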

FM-MEL-2 [7] = assay: as above; conditions: 72 h; culture: 2D
Method in brief: as §2

FM-MEL-3 [8] = assay: as above; conditions: 72 h; culture: 2D
Method in brief: as §2

FM-MEL-6 [9] = assay: as above; conditions: 72 h; culture: 2D
Method in brief: as §2

SK-MEL-28 = assay: as above; conditions: 72 h; culture: 2D
Method in brief: as §2

SK-MEL-2 = assay: as above; conditions: 72 h; culture: 2D
Method in brief: as §2

WM165 = assay: as above; conditions: 72 h; culture: 2D
Method in brief: as §2

WM852 = assay: as above; conditions: 72 h; culture: 2D
Method in brief: as §2

SMILES | EC50 (cell viability) (FM-MEL-2 [1]; culture: 2D) | EC50 (cell viability) (FM-MEL-2 [1]; culture: 3D spheroid) | EC50 (cell viability) (FM-MEL-3 [2]; culture: 2D) | EC50 (cell viability) (FM-MEL-3 [2]; culture: 3D spheroid) | EC50 (cell viability) (FM-MEL-6 [3]; culture: 2D) | EC50 (cell viability) (FM-MEL-6 [3]; culture: 3D spheroid) | drug sensitivity score (FM-MEL-2 [4]; culture: 2D) | drug sensitivity score (FM-MEL-2 [4]; culture: 3D spheroid) | drug sensitivity score (FM-MEL-3 [5]; culture: 2D) | drug sensitivity score (FM-MEL-3 [5]; culture: 3D spheroid) | drug sensitivity score (FM-MEL-6 [6]; culture: 2D) | drug sensitivity score (FM-MEL-6 [6]; culture: 3D spheroid) | drug sensitivity score (Bowes) | drug sensitivity score (FM-MEL-2 [7]) | drug sensitivity score (FM-MEL-3 [8]) | drug sensitivity score (FM-MEL-6 [9]) | drug sensitivity score (SK-MEL-28) | drug sensitivity score (SK-MEL-2) | drug sensitivity score (WM165) | drug sensitivity score (WM852)
O=C(Nc1ccc2[nH]nc(-c3ccncc3)c2c1)[C@@H]1CCN(CC(=O)N2CCN(c3ccc(-c4ncccn4)cc3)CC2)C1 | 206 nM | 54.5 nM | 97.1 nM | 69 nM | 210 nM | 120 nM | 17.7 | 25 | 22.5 | 26.2 | 11.2 | 17.2 | 1.3 | 20.8 | 22.8 | 12.7 | 21.8 | 15.6 | 21.2 | 8.2
CC(C)(C)c1cc(NC(=O)Nc2ccc(-c3cn4c(n3)sc3cc(OCCN5CCOCC5)ccc34)cc2)no1 [Quizartinib] | 95.7 nM | 45.3 nM | > 1000 nM | > 1000 nM | > 1000 nM | > 1000 nM | 10.5 | 14.5 | 0 | 0 | 0 | 0 | 1.2 | 10.5 | 5.1 | 0 | 0 | 0 | 1 | 0.3
Cn1cnc2c(F)c(Nc3ccc(Br)cc3F)c(C(=O)NOCCO)cc21 [Binimetinib] | 40.3 nM | 28.8 nM | 7.2 nM | 10.1 nM | 34.3 nM | 15.7 nM | 11 | 12.9 | 19.5 | 21.1 | 9.4 | 15.7 | 0 | 8.7 | 13.7 | 7.7 | 8.8 | 6.3 | 9.5 | 0.4
C=CCn1c(=O)c2cnc(Nc3ccc(N4CCN(C)CC4)cc3)nc2n1-c1cccc(C(C)(C)O)n1 [AZD1775] | 378 nM | 364 nM | 242 nM | 257 nM | 1800 nM | > 10000 nM | 5.8 | 4.5 | 14 | 15.6 | 1.7 | 0 | 15.2 | 7.6 | 12.8 | 12.5 | 4.3 | 11.3 | 13.1 | 14.5
CNc1ncc2cc(-c3cc(NC(=O)NCCC(C)(C)C)c(F)cc3C)c(C)nc2n1 | 59.3 nM | 59.8 nM | 83.3 nM | 64.9 nM | 187 nM | 97.3 nM | 20.6 | 20.8 | 24.5 | 26.6 | 11.3 | 16.9 | 7.4 | 19.9 | 25.4 | 14.4 | 20.3 | 15.2 | 25.4 | 10.2
